Laboratory results published in patent US20250101063A1, “POLYPEPTIDE COMPOUND AND USE THEREOF IN TREATMENT OF ENTERITIS” (Sichuan Gooddoctor Panxi Pharmaceutical Co., Ltd., priority 2022, published 2025).
“Also recorded” adds a separate entry of the source.

What was measured:
[1] = tested on: zebrafish model of intestinal mucosal injury; assay: Efficacy in relieving colitis: intestinal lumen area in TNBS-treated zebrafish; format: in vivo; conditions: for Intestinal lumen area (pixels, mean ± SE): 2 days after TNBS, n = 10
Procedure, shortened: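 TNBS in water for 2 days at 28 °C in 3 dpf wild-type AB zebrafish, then test polypeptide in water for 2 days at 28 °C at 250, 500 or 1000 μg/mL; later rounds used 1000 μg/mL. Prednisone control at 15.0 μg/mL. Intestinal lumen area imaged in 10 fish/group, mean±SE.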

[2] = tested on: TNBS-induced model of acute inflammatory bowel disease (UC) in SD rat; assay: TNBS-induced model of acute inflammatory bowel disease (UC) in SD rat; format: in vivo
From the text: In this experiment, a rat model of ulcerative colitis was established by administering trinitrobenzene sulfonic acid (TNBS) to laboratory animal male SD rats for a single enema intervention. Acute colitis in rats induced by trinitrobenzene sulfonic acid (TNBS) is an immune response induced by cytokines secreted by Th1 type cells. […] This model is simple to establish and has good reproducibility. It is an experimental animal model widely used in evaluating drugs for the treatment of inflammatory bowel disease. […] During the experimental treatment period (D1-D14), the body weight and general clinical observation indicators (including but not limited to food intake, water intake, activity level and defecation, etc.) of the animals in each experimental group were dynamically collected. At the same time, based on the relevant scoring standards for the disease activity index of ulcerative colitis, the reactivity such as the weight loss degree, stool morphology and trait, and bloody stool of the animals in each experimental group after TNBS induction were scored, and the disease activity index (DAI) of ulcerative colitis was calculated, once a day for 14 consecutive days. At the end point of the experiment, colon tissues of animals in each experimental group were collected, and the length and weight of the colon were measured and then the non-autopsy images were collected. Then the colon was cut open along the intestinal wall longitudinally and autopsy images were collected. Based on the “Criteria for Scoring Gross Morphological Manifestations of the Colon”, the gross damage with respect to colon adhesions, colon ulcers and inflammation of animals in each experimental group was observed and scored. Ulcer images were collected under a stereomicroscope and the area of colon ulcer foci was calculated, followed by routine fixation.

[3] = D 0-D 14, compound 12: 0.8 mg/kg, mesalazine: 30.0 mg/kg, enema once a day 14 days, mean ± SD
[4] = D 14, compound 12: 0.8 mg/kg, mesalazine: 30.0 mg/kg, enema once a day 14 days, mean ± SD
[5] = experimental endpoint, compound 12: 0.8 mg/kg, mesalazine: 30.0 mg/kg, enema once a day 14 days, mean ± SD
[6] = set treatment regimen, enema once a day 14 days, vs model control group
[7] = set treatment regimen, experimental endpoint, vs model control group

With “Pro-Val-Pro-Gln (PVPQ; printed: Pro-Val-Pro-Gln) [Compound 12]” the “Intestinal lumen area (pixels, mean ± SE)” value ([1]; 250 μg/mL in water) was 48857 ± 5649 pixels, the “Intestinal lumen area (pixels, mean ± SE)” value ([1]; 500 μg/mL in water) was 43802 ± 3228 pixels and the “Intestinal lumen area (pixels, mean ± SE)” value ([1]; 1000 μg/mL in water) was 26727 ± 2106 pixels. For the same substance, the “Activity in relieving intestinal lumen dilatation” value ([1]; 1000 μg/mL, significance vs model control group of the same batch) was “** (** p < 0.01)”, the “Intestinal lumen area compared with the model control group (in words)” value ([1]; 250, 500, 1000 μg/mL, Table 4) was “significant statistical differences compared with the model control group” and the “Body weight, Grouping day (D 0, g)” value ([2]; D 0, before treatment, compound 12: 0.8 mg/kg, mesalazine: 30.0 mg/kg, enema once a day, mean ± SD) was 276.36 ± 7.47 g. For the same substance, the “DAI score AUC(0-14 d) (D 0-D 14)” value [2, 3] was 46.40 ± 3.68, the “Weight change range (D 0-D 14, %)” value [2, 3] was −1.52 ± 12.20% and the “DAI score, Experimental day 1 (D 1, point)” value ([2]; D 1, compound 12: 0.8 mg/kg, mesalazine: 30.0 mg/kg, enema once a day, mean ± SD) was 4.1 ± 0.6 point. The “DAI score, Experimental day 3 (D 3, point)” value ([2]; D 3, compound 12: 0.8 mg/kg, mesalazine: 30.0 mg/kg, enema once a day, mean ± SD) was 4.9 ± 1.0 point, the “Body weight, Experimental day 5 (D 5, g)” value ([2]; D 5, compound 12: 0.8 mg/kg, mesalazine: 30.0 mg/kg, enema once a day, mean ± SD) was 244.90 ± 21.75 g and the “Body weight, Experimental endpoint (D 14, g)” value [2, 4] was 272.00 ± 33.21 g. For the same substance, the “DAI score, Experimental endpoint (D 14, point)” value [2, 4] was 1.4 ± 1.8 point, the “Colon length (cm)” value [2, 5] was 13.74 ± 1.97 cm and the “Colon ulcer and inflammation score (point)” value [2, 5] was 2.30 ± 0.82 point. The “Colon ulcer area (cm^2)” value [2, 5] was 3.79 ± 1.63^# cm^2, the “Colon weight” value [2, 5] was 2.10 ± 0.19 g and the “Colon weight/length ratio (100* g/cm)” value [2, 5] was 15.68 ± 3.14# 100* g/cm. The “Colonic adhesion score (point)” value [2, 5] was 1.20 ± 0.63 point, the “Overall therapeutic effect in the rat model of ulcerative colitis (in words)” value ([2]; set treatment regimen) was “significant therapeutic effects” and the “Effect on disease progression of ulcerative colitis / DAI scores (in words)” value [2, 6] was “significant improvement effect on the disease progression of ulcerative colitis”. For the same substance, the “Effect on weight gain inhibition / weight loss response of model animals (in words)” value [2, 6] was “no obvious improved therapeutic effect; also recorded: did not show a significant weight improvement effect”, the “Effect on colon atrophy process / colon weight/length ratio (in words)” value [2, 7] was “colon weight/length ratio was significantly decreased” and the “Effect on gross colon injury status (colonic adhesion, ulcer and inflammation) and colon ulcer area (in words)” value [2, 7] was “obvious therapeutic effects; also recorded: significant therapeutic effects on the gross damage manifestation of the colon”.
